These results are taken from patent US9815865B2, “Preparations of hydrophobic therapeutic agents, methods of manufacture and use thereof” (Aciex Therapeutics, Inc., priority 2013, dated 2017).

A short description of data set [1]: Saturated solubility and rate of dissolution of FP. As for the experimental part:
The saturated solubility of FP was measured by HPLC for the nanocrystals produced by the batch process of the invention, FP homogenized and FP stock material.

The nature of a further data set: Tap density. The data set is classed as physicochemical.
Data set [2] can be described thus: Stability of FP nanocrystal suspensions (assay, impurities, pH, particle size). The data set is classed as physicochemical. An excerpt:
This phase III composition was also stable chemically for more than 4 weeks at 40 degrees C. This combination of polymers also maintains the particle size at its original size for 5-14 days.
The stability of the nanocrystals is controlled by the pH of phase III, which is formed by the combination of phase I and phase II. A 20 gram batch of nanocrystals were produced at pH 5.5 and placed on stability at 25 degrees C. Another 20 gram batch was produced at pH 7.5 and stability determined at 25 degrees C. for 30 days. Unexpectedly, the particles at 7.5 grew rapidly to an average particle size greater than 1 micron. This phenomenon was verified for batches at the 50 gram scale.
It was also observed that the final compositions or formulations of FP were stable across all concentrations tested, i.e., 0.005%, 0.01%, 0.1%, and 10%. Samples were placed in 4° C., 25° C., 40° C. stability chambers. Stability time-points: T=0d, T=1 week, T=2 weeks, T=4 weeks.
Nanocrystals prepared by the batch process were tested on stability, to assess if the particle size distribution remained with a narrow range of 400-600 nm. […]
Samples were measured for particle size, pH, osmolality and assay. […]

For data set [3] the following is noted: cited from earlier work.
A short description of data set [4]: Solubility of triamcinolone acetonide in non-aqueous solvents. It counts as physicochemical. Conditions: preliminary estimation; for solubility at 15 min: organic solvent or mixture, thermodynamic from solid. As for the experimental part: Triamcinolone Acetonide (TA), stock was used as received from the manufacturer. Solubility of Triamcinolone Acetonide (TA) was measured in propylene glycol, polypropylene glycol, TWEEN® 20 (polysorbate 20), TWEEN 80 (polysorbate 80), PEG 400.
Initially, 5 mg of the TA was added to 10 g of solvent; the mixture was vortexed for 5 min, and sonicated for 10 min in a water bath. 1-5 mg of TA was added when the initial amount dissolved in the solvent completely—clear solution of TA in solvent. The process was continued until saturation solubility was reached. The solvent that provided the highest solubility was chosen for further development as Phase I.
The solubility of TA in propylene glycol, polypropylene glycol, PEG 400, TWEEN® 20 (polysorbate 20) and TWEEN® 80 (polysorbate 80) was evaluated. Initially, 5 mg of TA was added to these solvents and the suspension was vortexed and sonicated for 15 min in a water bath at 37° C. When the API (i.e., TA) dissolved, 1 mg of drug was added to the vial. This process was continued until a preliminary estimation of the drug in all solvents was achieved.

≈ marks a conversion by molar mass, not a printed value. Read-outs that look alike come from different tables or passages of the source.

As for `CCC(=O)O[C@]1(C(=O)SCF)[C@H](C)C[C@H]2[C@@H]3C[C@H](F)C4=CC(=O)C=C[C@]4(C)[C@@]3(F)[C@@H](O)C[C@@]21C` [FP homogenized], the saturated solubility in data set [1] lay within 40 to 45 µg/mL.

In the case of `CCC(=O)O[C@]1(C(=O)SCF)[C@H](C)C[C@H]2[C@@H]3C[C@H](F)C4=CC(=O)C=C[C@]4(C)[C@@]3(F)[C@@H](O)C[C@@]21C` [FP stock material], the tap density in the data set “Tap density” (listed as fluticasone propionate stock) was 0.3278 g/mL. In data set [1], the “time to reach saturated solubility” value is at most 2 weeks.

With `CCC(=O)O[C@]1(C(=O)SCF)[C@H](C)C[C@H]2[C@@H]3C[C@H](F)C4=CC(=O)C=C[C@]4(C)[C@@]3(F)[C@@H](O)C[C@@]21C` [Form A], the agglomeration over time result in data set [2] (after purification (FIG. 10)) is “did not display any agglomeration over time”. In addition, the “average particle size on stability” value in data set [2] (phase III pH 7.5, 25 degrees C. for 30 days) is “greater than 1 micron”. Moreover, the tap density in the data set “Tap density” and in the data set “Tap density” (listed as dried fluticasone propionate crystals prepared by the batch process) was 0.5786 g/mL throughout. For the same compound, in data set [1] (in water at room temperature), the dissolution rate entry was “about 1 μg/g/day”. The “time to reach saturated solubility” value in data set [1] (incubation in an aqueous medium) worked out at 6 weeks.

`CC1(C)O[C@@H]2C[C@H]3[C@@H]4CCC5=CC(=O)C=C[C@]5(C)[C@@]4(F)[C@@H](O)C[C@]3(C)[C@]2(C(=O)CO)O1` [TA stock material] yielded a tap density in “Tap density” of 0.4211 g/mL.

For `CC1(C)O[C@@H]2C[C@H]3[C@@H]4CCC5=CC(=O)C=C[C@]5(C)[C@@]4(F)[C@@H](O)C[C@]3(C)[C@]2(C(=O)CO)O1` [triamcinolone acetonide, (4aS,4bR,5S,6aS,6bS,9aR,10aS,10bS)-4b-fluoro-6b-glycoloyl-5-hydroxy-4a,6a,8,8-tetramethyl-4a,4b,5,6,6a,6b,9a,10,10a,10b,11,12-dodecahydro-2H-naphtho[2′,1′:4,5]indeno[1,2-d][1,3] dioxol-2-one], the water solubility in data set [3] (at 28° C.) is 17.5 µg/mL (≈ 0.0403 mM). Besides, the “solubility (descriptive)” value in data set [3] (in water) is given as “practically insoluble”. Moreover, the solubility in data set [4] (in PEG 400, 37° C.) is 7000 µg/mL (≈ 16.1 mM); in data set [4] (in polypropylene glycol, 37° C.) it was 8000 µg/mL (≈ 18.4 mM). Further, the solubility at 15 min in data set [4] (in Propylene glycol, sonicated in water bath at 37° C.) is 14000 µg/mL (≈ 32.2 mM); in data set [4] (in TWEEN 20 (polysorbate 20), 37° C.), 5500 µg/mL (≈ 12.7 mM); in data set [4] (in TWEEN 80 (polysorbate 80), 37° C.) it was 4000 µg/mL (≈ 9.21 mM).
